Values of other authors, collected in patent US20040265231A1, “Use of antioxidants to mitigate radioimmunotherapy-induced radiation toxicity” (priority 1999, published 2004).

How the values were obtained:
[1] = for radioprotective effect (frequency of micronuclei and chromosomal aberration post-radiation): murine study, gamma-ray

Row | Compound | radioprotective effect (frequency of micronuclei and chromosomal aberration post-radiation) [1] | radioprotective effect against internalized 131I and 125I (dietary and injected) | radioprotective effect against 210Po (alpha emission) (in vivo) | radioprotection against tissue incorporated I5I (in vivo) | radioprotective effect of vitamin alone ([1]; rats and mice)
1 | O=C1O[C@H]([C@@H](O)CO)C(O)=C1O [vitamin C, L-ascorbic acid] | exhibited radioprotective effects | exhibited radioprotective effects | not against alpha emission from ^210Po | – | –
2 | vitamin A | – | – | not against ^210Po | effective radioprotector | –
3 | vitamin E | exhibited radioprotective effects | – | – | – | ineffective
